Experimental data reported in patent publication US20120065187A1 (ALCON RESEARCH, LTD, priority 2008, published 2012).

Experiments:
human H4 = target: T1, human H4 (Homo sapiens, UniProt Q9H3N8); assay: In vitro histamine receptor cell-based assay (aequorin bioluminescence), H4 antagonism; conditions: CHO-K1 cells expressing human H4, aequorin and Gα16; histamine at EC80; read-out: H4 Antagonist EC50
T1 construct: host or cells: CHO-K1
In short: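 CHO-K1 cells stably expressing human H4, Gα16 and mitochondrial aequorin, loaded with 5 μM coelenterazine-h, preincubated 15 min at room temperature with compound, then challenged with histamine at EC80.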

human H1 = target: T2, human H1 (Homo sapiens, UniProt P35367); assay: In vitro histamine receptor cell-based assay (aequorin bioluminescence), H1 antagonism; conditions: CHO-K1 cells expressing human H1 and aequorin; histamine at EC80; read-out: H1 Antagonist EC50
T2 construct: host or cells: CHO-K1
T2 sequence (P35367 whole entry): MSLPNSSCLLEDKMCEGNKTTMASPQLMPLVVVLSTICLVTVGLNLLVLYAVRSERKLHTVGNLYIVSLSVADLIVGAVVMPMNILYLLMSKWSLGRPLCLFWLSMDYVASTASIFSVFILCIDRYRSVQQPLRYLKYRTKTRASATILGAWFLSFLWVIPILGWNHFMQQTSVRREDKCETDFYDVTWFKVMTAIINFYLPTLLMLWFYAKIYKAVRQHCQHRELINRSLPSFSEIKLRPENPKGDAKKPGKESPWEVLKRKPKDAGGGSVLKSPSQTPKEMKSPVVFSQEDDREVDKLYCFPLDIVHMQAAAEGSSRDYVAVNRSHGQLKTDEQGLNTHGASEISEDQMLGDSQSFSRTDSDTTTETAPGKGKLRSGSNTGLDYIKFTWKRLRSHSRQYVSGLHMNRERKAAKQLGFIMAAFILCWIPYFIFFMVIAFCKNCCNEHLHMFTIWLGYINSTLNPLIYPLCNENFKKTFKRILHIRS
In short: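 Stable CHO-K1 lines expressing human H1 or H4 (H4 with Gα16) plus mitochondrial aequorin, loaded 4 h with 5 μM coelenterazine-h at ~21 °C. Compounds preincubated 15 min, then histamine at EC80 added; bioluminescence decrease (AUC or max–min) expressed as % of positive control (diphenhydramine for H1, JNJ7777120 for H4, 10 μM).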

[1] = test system: Hartley VAF outbred guinea pigs; assay: Allergic conjunctivitis in passively sensitized guinea pigs (conjunctival EPO activity); type: in vivo; design: key: +: a ≦0.1% qd dose was statistically equivalent to dexamethasone with respect to reduction of EPO activity; −: the compound was statistically inferior to dexamethasone and not different than vehicle; conditions: ≦0.1% qd topical, 1 hour prior to ovalbumin challenge; reduction of conjunctival EPO activity vs dexamethasone
Protocol: (§1) Male Hartley VAF outbred guinea pigs were passively sensitized to ovalbumin by a single OD subconjunctival injection of undiluted guinea pig anti-ovalbumin antiserum 24 hours before OD topical challenge with 500 μg ovalbumin in saline. Control animals were injected with saline only and challenged with ovalbumin. To determine acute phase drug efficacy, 30 min after challenge animals were clinically scored by a masked observer for severity of signs of conjunctivitis based on a standard scale. Test compounds were administered topically 1 hour prior to challenge (QD protocol), or 1 hour prior to challenge and again 8 hours after challenge (BID protocol). Twenty-four hours after challenge, animals were euthanized and conjunctivae were harvested for determination of tissue eosinophil peroxidase (EPO) concentration as a marker of allergic inflammation. Homogenates of freshly collected tissues were prepared by shaking the tissues in 2 mL round-bottom tubes containing 0.5 mL of homogenization buffer (50 mM Tris HCl, pH 8.0, 6 mM KBr) and one 5-mm stainless steel bead on a Qiagen TissueLyser at 30 Hz for 5 min. Homogenates were frozen and thawed once, then centrifuged at 10,000 rpm for 5 min. EPO activity in supernatants was measured by reacting diluted homogenates with a solution of 6 mM o-phenylenediamine substrate and 8.8 mM H2O2 in homogenization buffer for 3 min. The reaction was stopped with 4M H2SO4 and absorbances were measured at […] on a spectrophotometric plate reader. Total EPO in samples was calculated from a standard curve of recombinant human EPO in each assay. EPO activity was normalized to total protein concentration (Pierce BCA assay) in supernatants. Background EPO activity was determined from the unsensitized, antigen-challenged control group. Percent inhibition was calculated from the sensitized, antigen-challenged, vehicle-treated control group in each experiment. Ovalbumin-injected animals dosed topically with 0.1% w/v dexamethasone (dex) served as positive control. Groups were compared by ANOVA with Dunnett's or Tukey's post-hoc tests where appropriate with significance assigned at the 95% confidence level.
(§2) The table below summarizes the results.

[2] = test system: Hartley VAF outbred guinea pigs; assay: as above; type: in vivo; design: key: +: a 0.01% bid dose was statistically equivalent to dexamethasone with respect to reduction of EPO activity; −: the compound was statistically inferior to dexamethasone and not different than vehicle; conditions: reduction of conjunctival EPO activity vs dexamethasone; for BID activity: 0.01% bid topical, 1 hour prior to and 8 hours after ovalbumin challenge; for QD activity: ≦0.1% qd topical, 1 hour prior to ovalbumin challenge
Protocol: as §1, §2

| EC50 (human H4) [µM] | EC50 (human H1) [µM] | Structure (SMILES) | QD activity [1] | BID activity [2] | QD activity [2] |
| --- | --- | --- | --- | --- | --- |
| < 10 | > 10 | Clc1ccc2nc(N3CCNCC3)c3nnnn3c2c1 [Example 19, 8-Chloro-4-(piperazin-1-yl)tetrazolo[1,5-a]quinoxaline] | + | + |  |
| < 10 | > 10 | FC(F)(F)c1ccc2nc(N3CCNCC3)c3nncn3c2c1 [Example 24, 4-(piperazin-1-yl)-8-(trifluoromethyl)-[1,2,4]triazolo[4,3-a]quinoxaline] | + |  |  |
| < 10 | > 10 | FC(F)(F)c1cc2c(cc1Cl)nc(N1CCNCC1)c1nncn12 [Example 45, 7-Chloro-4-(piperazin-1-yl)-8-(trifluoromethyl)-[1,2,4]triazolo[4,3-a]quinoxaline] | + |  |  |
| < 10 | < 10 | Clc1ccc2nc(N3CCNCC3)c3n[nH]cc3c2c1 [Example 153, 8-Chloro-4-(piperazin-1-yl)-2H-pyrazolo[3,4-c]quinoline] |  | − |  |
| < 10 | > 10 | Brc1ccc2nc(N3CCNCC3)c3nncn3c2c1 [Example 52, 8-bromo-4-(piperazin-1-yl)-[1,2,4]triazolo[4,3-a]quinoxaline] |  |  | − |
| < 10 | > 10 | Cl.FC(F)(F)c1ccc2nc(N3CCNCC3)c3nnnn3c2c1 [Example 29, 4-(piperazin-1-yl)-8-(trifluoromethyl)tetrazolo[1,5-a]quinoxaline hydrochloride] | + | + |  |
| < 10 | > 10 | Clc1ccc2nc(N3CCCNCC3)c3nncn3c2c1 [Example 66, 8-chloro-4-(1,4-diazepan-1-yl)-[1,2,4]triazolo[4,3-a]quinoxaline] |  |  | − |
| < 10 | > 10 | CN1CCN(c2nc3ccc(C(F)(F)F)cc3n3nnnc23)CC1 [Example 27, 4-(4-methylpiperazin-1-yl)-8-(trifluoromethyl)tetrazolo[1,5-a]quinoxaline] |  |  | − |
| < 10 | > 10 | Cc1nc2c3cc(C(F)(F)F)c(F)cc3nc(N3CCNCC3)n2n1.Cl [Example 125, 8-fluoro-2-methyl-5-(piperazin-1-yl)-9-(trifluoromethyl)-[1,2,4]triazolo[1,5-c]quinazoline hydrochloride] |  |  | − |
| < 10 | > 10 | Fc1cc(C(F)(F)F)cc2c1nc(N1CCNCC1)c1nncn12 [Example 49, 6-Fluoro-4-(piperazin-1-yl)-8-(trifluoromethyl)-[1,2,4]triazolo[4,3-a]quinoxaline] |  |  | − |

Continued, compound first:

| Structure (SMILES) | EC50 (human H4) [µM] | EC50 (human H1) [µM] | QD activity [1] | BID activity [2] | QD activity [2] |
| --- | --- | --- | --- | --- | --- |
| Cc1nc2c3c(F)c(C(F)(F)F)ccc3nc(N3CCN(C)CC3)n2n1.Cl [Example 126, 10-fluoro-2-methyl-5-(4-methylpiperazin-1-yl)-9-(trifluoromethyl)-[1,2,4]triazolo[1,5-c]quinazoline hydrochloride] | < 10 | > 10 | + |  |  |
| Cc1nc2c3cc(C(F)(F)F)cc(F)c3nc(N3CCN(C)CC3)n2n1.Cl [Example 127, 7-fluoro-2-methyl-5-(4-methylpiperazin-1-yl)-9-(trifluoromethyl)-[1,2,4]triazolo[1,5-c]quinazoline hydrochloride] | < 10 | > 10 | + |  |  |
| Cc1nc2c3cc(C(F)(F)F)c(F)cc3nc(N3CCN(C)CC3)n2n1.Cl [Example 124, 8-fluoro-2-methyl-5-(4-methylpiperazin-1-yl)-9-(trifluoromethyl)-[1,2,4]triazolo[1,5-c]quinazoline hydrochloride] | < 10 | > 10 |  |  | − |
| CN1CCN(c2nc3cc(Cl)c(Cl)cc3n3cnnc23)CC1 [Example 39, 7,8-dichloro-4-(4-methylpiperazin-1-yl)-[1,2,4]triazolo[4,3-a]quinoxaline] | < 10 | > 10 |  | + |  |
| Cc1nc2c3cc(F)c(C(F)(F)F)cc3nc(N3CCN(C)CC3)n2n1.Cl [Example 129, 9-fluoro-2-methyl-5-(4-methylpiperazin-1-yl)-8-(trifluoromethyl)-[1,2,4]triazolo[1,5-c]quinazoline hydrochloride] | < 10 | > 10 |  |  | − |
| Cc1nc2c3cc(Br)ccc3nc(N3CCNCC3)n2n1 [Example 136, 9-bromo-2-methyl-5-(piperazin-1-yl)-[1,2,4]triazolo[1,5-c]quinazoline] | < 10 | > 10 |  |  | − |
| Cc1nc2c(N3CCN(C)CC3)nc3ccc(Cl)cc3n2n1 [Example 165, 8-chloro-2-methyl-4-(4-methylpiperazin-1-yl)-[1,2,4]triazolo[1,5-a]quinoxaline] | < 10 | < 10 | + | + |  |
| CN1CCN(c2nc3ccc(Cl)cc3c3[nH]cnc23)CC1 [Example 160, 8-Chloro-4-(4-methylpiperazin-1-yl)-1H-imidazo[4,5-c]quinoline] | < 10 | > 10 |  | − |  |
| Cc1nc2c3ccc(C(F)(F)F)cc3nc(N3CCN(C)CC3)n2n1 [Example 109, 2-Methyl-5-(4-methylpiperazin-1-yl)-8-(trifluoromethyl)-[1,2,4]triazolo[1,5-c]quinazoline] | < 10 | > 10 |  | − |  |
| CN1CCN(c2nc3ccc(Br)cc3n3cnnc23)CC1 [Example 54, 8-bromo-4-(4-methylpiperazin-1-yl)-[1,2,4]triazolo[4,3-a]quinoxaline] | < 10 | > 10 |  |  | − |
| Cc1nc2c(N3CCN(C)CC3)nc3cc(F)c(F)cc3c2o1 [Example 145, 7,8-difluoro-2-methyl-4-(4-methylpiperazin-1-yl)oxazolo[4,5-c]quinoline] | < 10 | > 10 |  |  | − |
| CN1CCN(c2nc3ccc(Cl)cc3c3conc23)CC1 [Example 166, 8-Chloro-4-(4-methylpiperazin-1-yl)isoxazolo[3,4-c]quinoline] | < 10 | > 10 | + | + |  |
